Like-named read-outs stand apart in the source and are kept apart here.
What was measured:
[1] = tested on: mu opiate receptor (MOR); assay: MOR agonist activity using [35S]GTPγS binding assay in striatal membranes; format: biochemical; conditions: for MOR agonist activity ([35S]GTPγS binding), FLNA-Binding Compound as Agonist 1 μM + BFNA: 1 μM compound + 1 μM β-funaltrexamine
Procedure: To assess the mu opiate receptor (MOR) agonist activity of positive compounds from the FLNA screening, compounds were tested in a [^35S]GTPγS binding assay using striatal membranes. […] This assay measures a functional consequence of receptor occupancy at one of the earliest receptor-mediated events. The assay permits traditional pharmacological parameters of potency, efficacy and antagonist affinity, with the advantage that agonist measures are not subjected to amplification or other modulation that may occur when analyzing parameters further downstream of the receptor.
Thus, striatal tissue was homogenized in 10 volumes of ice cold 25 mM HEPES buffer, pH 7.4, which contained 1 mM EGTA, 100 mM sucrose, 50 μg/ml leupeptin, 0.04 mM PMSF, 2 μg/ml soybean trypsin inhibitor and 0.2% 2-mercaptoethanol. The homogenates were centrifuged at 800×g for 5 minutes and the supernatants were centrifuged at 49,000×g for 20 minutes. The resulting pellets were suspended in 10 volume of reaction buffer, which contained 25 mM HEPES, pH 7.5, 100 mM NaCl, 50 μg/ml leupeptin, 2 μg/ml soybean trypsin inhibitor, 0.04 mM PMSF and 0.02% […].
The resultant striatal membrane preparation (200 μg) was admixed and maintained (incubated) at 30° C. for 5 minutes in reaction buffer as above that additionally contained 1 mM MgCl2 and 0.5 nM [^35S]GTPγS (0.1 μCi/assay, PerkinElmer Life and Analytical Sciences) in a total volume of 250 μl and continued for 5 minutes in the absence or presence of 0.1-10 μM of an assayed compound of interest. The reaction was terminated by dilution with 750 μl of ice-cold reaction buffer that contained 20 mM MgCl2 and 1 mM EGTA and immediate centrifugation at 16,000×g for 5 minutes.
The resulting pellet was solubilized by sonicating for 10 seconds in 0.5 ml of immunoprecipitation buffer containing 0.5% digitonin, 0.2% sodium cholate and 0.5% NP-40. Normal rabbit serum (1 μl) was added to 1 ml of lysate and incubated at 25° C. for 30 minutes. Nonspecific immune complexes were removed by incubation with 25 μl of protein A/G-conjugated agarose beads at 25° C. for 30 minutes followed by centrifugation at 5,000×g at 4° C. for 5 minutes. The supernatant was divided and separately incubated at 25° C. for 30 minutes with antibodies raised against Gαo proteins (1:1,000 dilutions).
The immunocomplexes so formed were collected by incubation at 25° C. for 30 minutes with 40 μl of agarose-conjugated protein A/G beads and centrifugation at 5,000×g at 4° C. for 5 minutes. The pellet was washed and suspended in buffer containing 50 mM Tris-HCl, pH 8.0, and 1% NP-40. The radioactivity in the suspension was determined by liquid scintillation spectrometry.

[2] = molecular target: FLNA pentapeptide of SEQ ID NO: 1 (Bn-VAKGL) (Homo sapiens, UniProt P21333); assay: FITC-NLX-based FLNA screening assay (inhibition of FITC-naloxone binding to Bn-VAKGL on streptavidin plates); conditions: for inhibition at 0.01 µM / inhibition at 0.1 µM / inhibition at 1 µM / Percent Binding Inhibition: 10 nM FITC-NLX; for Percent inhibition of FITC-NLX binding (preliminary study): 100 nM frozen-stored FITC-NLX, average of two runs
[3] = FLNA-binding compound 0.01 μM, read-out: Percent Binding Inhibition
[4] = FLNA-binding compound 0.1 μM, read-out: Percent Binding Inhibition
[5] = FLNA-binding compound 1 μM, read-out: Percent Binding Inhibition
[6] = 0.1 μM compound relative to DAMGO
[7] = 1 μM compound + BFNA relative to DAMGO + BFNA
[8] = 1 μM compound relative to DAMGO

COc1ccc(S(=O)(=O)N2CCC3(OCCN3S(=O)(=O)c3ccc(OC)cc3)C3CCCCC32)cc1 (centres unmarked) [Compound C0144M]
% DAMGO (0.1 μM) ([1]; Series C-1, 0.1 μM compound, relative to DAMGO): 108.3% | Concentration of FLNA-Binding Compound as Agonist 0.1 μM ([1]; Series C-1, 0.1 μM compound, [35S]GTPγS binding to Gαo, striatal membranes): 186.3% | Concentration of FLNA-Binding Compound as Agonist 1 μM + BFNA ([1]; Series C-1, 1 μM compound + 1 μM β-FNA): 125.9% | % DAMGO + BFNA ([1]; Series C-1, 1 μM compound + β-FNA, relative to DAMGO + BFNA): 137.9% | % DAMGO (1 μM) ([1]; Series C-1, 1 μM compound, relative to DAMGO): 90.8% | Concentration of FLNA-Binding Compound as Agonist 1 μM ([1]; Series C-1, 1 μM compound, [35S]GTPγS binding to Gαo, striatal membranes): 295.9% | inhibition at 0.01 µM [2, 3]: 46.4% | inhibition at 0.1 µM [2, 4]: 50.7% | inhibition at 1 µM [2, 5]: 55.7%

COc1c2c(cc3c1OCO3)CCN(CC(O)COC1CC(C)CCC1C(C)C)C2 (centres unmarked) [Compound A0061]
MOR agonist activity ([35S]GTPγS binding), FLNA-Binding Compound as Agonist 0.1 μM ([1]; 0.1 μM compound): 110.3% | % DAMGO (0.1 μM) [1, 6]: 70.7% | MOR agonist activity ([35S]GTPγS binding), FLNA-Binding Compound as Agonist 1 μM ([1]; 1 μM compound): 197.1% | MOR agonist activity ([35S]GTPγS binding), FLNA-Binding Compound as Agonist 1 μM + BFNA [1]: 10.7% | % DAMGO + BFNA [1, 7]: 26.8% | % DAMGO (1 μM) [1, 8]: 85.5% | inhibition at 0.01 µM [2, 3]: 27.5% | inhibition at 0.1 µM [2, 4]: 38.9% | inhibition at 1 µM [2, 5]: 42.8%

CC1CN(CC(O)COc2ccccc2C(C)C)CC(C)O1 (centres unmarked) [Compound A0029]
MOR agonist activity ([35S]GTPγS binding), FLNA-Binding Compound as Agonist 0.1 μM ([1]; 0.1 μM compound): 173.8% | % DAMGO (0.1 μM) [1, 6]: 98.4% | MOR agonist activity ([35S]GTPγS binding), FLNA-Binding Compound as Agonist 1 μM ([1]; 1 μM compound): 206.5% | MOR agonist activity ([35S]GTPγS binding), FLNA-Binding Compound as Agonist 1 μM + BFNA [1]: 22.3% | % DAMGO + BFNA [1, 7]: 84.8% | % DAMGO (1 μM) [1, 8]: 81.2% | inhibition at 0.01 µM [2, 3]: 44.4% | inhibition at 0.1 µM [2, 4]: 44.4% | inhibition at 1 µM [2, 5]: 50.8%

CC1CN(CC(O)COc2cccc(N(C)C)c2)CC(C)O1 (centres unmarked) [Compound A0042]
MOR agonist activity ([35S]GTPγS binding), FLNA-Binding Compound as Agonist 0.1 μM ([1]; 0.1 μM compound): 147.5% | % DAMGO (0.1 μM) [1, 6]: 75.2% | MOR agonist activity ([35S]GTPγS binding), FLNA-Binding Compound as Agonist 1 μM ([1]; 1 μM compound): 233.1% | MOR agonist activity ([35S]GTPγS binding), FLNA-Binding Compound as Agonist 1 μM + BFNA [1]: 89.5% | % DAMGO + BFNA [1, 7]: 121.1% | % DAMGO (1 μM) [1, 8]: 84.5% | inhibition at 0.01 µM [2, 3]: 47.2% | inhibition at 0.1 µM [2, 4]: 48.3% | inhibition at 1 µM [2, 5]: 55.8%

CC1CCN(CC(O)COC2CC(C)CCC2C(C)C)CC1 (centres unmarked) [Compound A0006]
MOR agonist activity ([35S]GTPγS binding), FLNA-Binding Compound as Agonist 0.1 μM ([1]; 0.1 μM compound): 170.0% | % DAMGO (0.1 μM) [1, 6]: 113.8% | MOR agonist activity ([35S]GTPγS binding), FLNA-Binding Compound as Agonist 1 μM ([1]; 1 μM compound): 190.9% | MOR agonist activity ([35S]GTPγS binding), FLNA-Binding Compound as Agonist 1 μM + BFNA [1]: 18.2% | % DAMGO + BFNA [1, 7]: 68.7% | % DAMGO (1 μM) [1, 8]: 82.9% | inhibition at 0.01 µM [2, 3]: 37.9% | inhibition at 0.1 µM [2, 4]: 43.5% | inhibition at 1 µM [2, 5]: 47.5%

CC1CCCC(OCC(O)CN2CC(C)OC(C)C2)C1 (centres unmarked) [Compound A0021]
MOR agonist activity ([35S]GTPγS binding), FLNA-Binding Compound as Agonist 0.1 μM ([1]; 0.1 μM compound): 133.3% | % DAMGO (0.1 μM) [1, 6]: 79.8% | MOR agonist activity ([35S]GTPγS binding), FLNA-Binding Compound as Agonist 1 μM ([1]; 1 μM compound): 275.3% | MOR agonist activity ([35S]GTPγS binding), FLNA-Binding Compound as Agonist 1 μM + BFNA [1]: 12.1% | % DAMGO + BFNA [1, 7]: 34.9% | % DAMGO (1 μM) [1, 8]: 112.4% | inhibition at 0.01 µM [2, 3]: 36.8% | inhibition at 0.1 µM [2, 4]: 43.4% | inhibition at 1 µM [2, 5]: 49.5%

COc1ccc(CCC(O)CC2c3c(cc4c(c3OC)OCO4)CCN2C)cc1 (centres unmarked) [Compound B0048]
% DAMGO (0.1 μM) ([1]; Series B, 0.1 μM compound, relative to DAMGO): 104.8% | MOR agonist activity, percent [35S]GTPγS binding at the stated compound concentration ([1]; Series B, 0.1 μM compound, [35S]GTPγS binding to Gαo, striatal membranes): 185.1% | MOR agonist activity, percent [35S]GTPγS binding at the stated compound concentration ([1]; Series B, 1 μM compound + 1 μM β-FNA): 78.5% | % DAMGO + BFNA ([1]; Series B, 1 μM compound + β-FNA, relative to DAMGO + BFNA): 298.5% | % DAMGO (1 μM) ([1]; Series B, 1 μM compound, relative to DAMGO): 87.8% | MOR agonist activity, percent [35S]GTPγS binding at the stated compound concentration ([1]; Series B, 1 μM compound, [35S]GTPγS binding to Gαo, striatal membranes): 223.4% | inhibition at 0.01 µM [2, 3]: 34.7% | inhibition at 0.1 µM [2, 4]: 41.9% | inhibition at 1 µM [2, 5]: 43.9%

COc1ccc(OCC(O)CN2CCc3ccccc32)cc1 (centres unmarked) [Compound A0069]
Percent Binding Inhibition ([2]; FLNA-binding compound 0.01 μM): 32.0% | Percent Binding Inhibition ([2]; FLNA-binding compound 0.1 μM): 40.4% | Percent Binding Inhibition ([2]; FLNA-binding compound 1 μM): 46.1%

O=C1CNC2(CCN(CC3CC3)CC2)N1 [Compound C0123M]
inhibition at 0.01 µM [2, 3]: 51.9% | inhibition at 0.1 µM [2, 4]: 60.5% | inhibition at 1 µM [2, 5]: 62.9%

C=CCN1CC[C@]23c4c5ccc(O)c4O[C@H]2C(=O)CC[C@]3(O)[C@H]1C5 [(+) NLX]
Percent inhibition of FITC-NLX binding (preliminary study) ([2]; compound 0.1 nM): 22.7% | Percent inhibition of FITC-NLX binding (preliminary study) ([2]; compound 1 nM): 22.8% | Percent inhibition of FITC-NLX binding (preliminary study) ([2]; compound 10 nM): 23.1% | Percent inhibition of FITC-NLX binding (preliminary study) ([2]; compound 100 nM): 22.8% | Percent inhibition of FITC-NLX binding (preliminary study) ([2]; compound 1 µM): 39.8%

COc1c2c(cc3c1C(CC(=O)CCc1ccccc1)[N+](C)(C)CC3)OCO2 (centres unmarked) [Compound B0015]
inhibition at 0.01 µM ([2]; read-out: Percent Binding Inhibition, FLNA-binding compound 0.01 μM): 30.4% | inhibition at 0.1 µM ([2]; read-out: Percent Binding Inhibition, FLNA-binding compound 0.1 μM): 35.3% | inhibition at 1 µM ([2]; read-out: Percent Binding Inhibition, FLNA-binding compound 1 μM): 42.3%

O=C1CC[C@@]2(O)[C@H]3Cc4ccc(O)c5c4[C@@]2(CCN3CC2CC2)[C@H]1O5 [NTX, naltrexone, reference compound]
Inhibition of 10 nM FITC-conjugated NLX binding to biotinylated FLNA pentapeptide (FIG. 28) ([2]; 1 μM): inhibit well

O=C1CNC2(CCN(S(=O)(=O)c3ccc(O)cc3)CC2)N1Cc1ccccc1 [Compound C0148M]
inhibition at 0.01 µM [2, 3]: 46.2% | inhibition at 0.1 µM [2, 4]: 52% | inhibition at 1 µM [2, 5]: 57%

CN1CC[C@]23c4c5ccc(O)c4O[C@H]2[C@@H](O)C=C[C@H]3[C@H]1C5 [morphine, reference compound]
Inhibition of 10 nM FITC-conjugated NLX binding to biotinylated FLNA pentapeptide (FIG. 28) ([2]; 10 μM): minimal binding inhibition

COc1ccc2c3c1O[C@H]1C(=O)CC[C@@]4(O)[C@@H](C2)N(C)CC[C@]314 [oxycodone, reference compound]
Inhibition of 10 nM FITC-conjugated NLX binding to biotinylated FLNA pentapeptide (FIG. 28) ([2]; 10 μM): minimal binding inhibition
